Data published in PubChem BioAssay AID1963863 (Molecular Pharmacology Branch, DTP, NCI, 2024).

Tested on: 931267-113-T-J1-PDC KRAS spheroid with HUVEC/MSC, viability
Experiment: Anticancer human tumor 931267-113-T-J1-PDC patient-derived colon adenocarcinoma cell line growth inhibition [KRAS2]
Details: for IC50: curve of first compound; for viability, T/C: stronger effect = lower value
In short: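 Combination screen of spheroid viability in tumor-cell co-cultures with endothelial (HUVEC) and mesenchymal stem cell stroma. Each agent was tested in half-log dilutions, topping at clinical Cmax or at 10 microM without a known Cmax.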

[1] = second compound 0.1 µM, first compound 0.01 µM
[2] = second compound 0.1 µM, first compound 0.0316 µM
[3] = second compound 0.1 µM, first compound 0.1 µM
[4] = second compound 0.1 µM, first compound 0.316 µM
[5] = second compound 0.1 µM, first compound 1 µM
[6] = second compound 0.1 µM, first compound 3.16 µM
[7] = second compound 0.316 µM, first compound 0.01 µM
[8] = second compound 0.316 µM, first compound 0.0316 µM
[9] = second compound 0.316 µM, first compound 0.1 µM
[10] = second compound 0.316 µM, first compound 0.316 µM
[11] = second compound 0.316 µM, first compound 1 µM
[12] = second compound 0.316 µM, first compound 3.16 µM
[13] = second compound 1 µM, first compound 0.01 µM
[14] = second compound 1 µM, first compound 0.0316 µM
[15] = second compound 1 µM, first compound 0.1 µM
[16] = second compound 1 µM, first compound 0.316 µM
[17] = second compound 1 µM, first compound 1 µM
[18] = second compound 1 µM, first compound 3.16 µM
[19] = second compound 3.16 µM, first compound 0.01 µM
[20] = second compound 3.16 µM, first compound 0.0316 µM
[21] = second compound 3.16 µM, first compound 0.1 µM
[22] = second compound 3.16 µM, first compound 0.316 µM
[23] = second compound 3.16 µM, first compound 1 µM
[24] = second compound 3.16 µM, first compound 3.16 µM
[25] = second compound 10 µM, first compound 0.01 µM
[26] = second compound 10 µM, first compound 0.0316 µM
[27] = second compound 10 µM, first compound 0.1 µM
[28] = second compound 10 µM, first compound 0.316 µM
[29] = second compound 10 µM, first compound 1 µM
[30] = second compound 10 µM, first compound 3.16 µM
[31] = second compound 0.1 µM, first compound 10 µM
[32] = second compound 0.316 µM, first compound 10 µM
[33] = second compound 1 µM, first compound 10 µM
[34] = second compound 3.16 µM, first compound 10 µM
[35] = second compound 10 µM, first compound 10 µM
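Also: compound exposure lasted 7 days before the readout.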
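For viability, T/C in this document: 100% = DMSO vehicle control viability.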

Row | SMILES | IC50 (second compound 0.1 µM) [nM] | IC50 (second compound 0.316 µM) [nM] | IC50 (second compound 1 µM) [nM] | IC50 (second compound 3.16 µM) [nM] | IC50 (second compound 10 µM) [nM] | viability, T/C [2] [%] | viability, T/C [3] [%] | viability, T/C [4] [%] | viability, T/C [5] [%] | viability, T/C [6] [%] | viability, T/C [8] [%] | viability, T/C [9] [%] | viability, T/C [10] [%] | viability, T/C [11] [%] | viability, T/C [12] [%] | viability, T/C [14] [%] | viability, T/C [15] [%] | viability, T/C [16] [%] | viability, T/C [17] [%] | viability, T/C [18] [%] | also measured
1 | CC1COCCN1c1cc(-c2ccnn2C)c2ccnc(-c3ccn[nH]3)c2n1 (stereo not given) + CNCc1ccccc1-c1csc(C(C)Nc2nc(C)nc3cc(OC)c(OC)cc23)c1 | 49.6 | 46.6 | 27.8 | < 10 | < 10 | 64.9 | 27.4 | 11.4 | 17.1 | 18 | 64.9 | 20.6 | 14.7 | 16.9 | 15.3 | 48.8 | 19.8 | 7.5 | 10.8 | 6.12 | viability, T/C [1]: 87.4%; viability, T/C [7]: 80.2%; viability, T/C [13]: 58.3%; viability, T/C [19]: 0.07%; viability, T/C [20]: 0.07%; viability, T/C [21]: 0.05%; viability, T/C [22]: 0.04%; viability, T/C [23]: 0.05%; viability, T/C [24]: 0.14%; viability, T/C [25]: 0.16%; viability, T/C [26]: 0.09%; viability, T/C [27]: 0.1%; viability, T/C [28]: 0.1%; viability, T/C [29]: 0.11%; viability, T/C [30]: 1.06%
2 | CC1OCC2(CCN(c3cnc(Sc4ccnc(N)c4Cl)c(N)n3)CC2)C1N (stereo not given) + CNCc1ccccc1-c1csc(C(C)Nc2nc(C)nc3cc(OC)c(OC)cc23)c1 | > 10000 | > 10000 | 31.6 | < 31.6 | < 31.6 | 96.8 | 70.7 | 66.5 | 68.3 | 61.1 | 88.6 | 89.3 | 72 | 63.2 | 78.8 | 51.3 | 44.8 | 54.2 | 33.1 | 33.2 | viability, T/C [31]: 59.8%; viability, T/C [32]: 81.8%; viability, T/C [33]: 27.5%; viability, T/C [20]: 0.09%; viability, T/C [21]: 0.09%; viability, T/C [22]: 0.08%; viability, T/C [23]: 0.08%; viability, T/C [24]: 0.08%; viability, T/C [34]: 0.17%; viability, T/C [26]: 0.12%; viability, T/C [27]: 0.19%; viability, T/C [28]: 0.13%; viability, T/C [29]: 0.13%; viability, T/C [30]: 0.12%; viability, T/C [35]: 0.17%
3 | CCNC(=O)CC1N=C(c2ccc(Cl)cc2)c2cc(OC)ccc2-n2c(C)nnc21 (stereo not given) + CNCc1ccccc1-c1csc(C(C)Nc2nc(C)nc3cc(OC)c(OC)cc23)c1 | 775 | 240 | 170 | < 31.6 | < 31.6 | 96.5 | 109 | 63.5 | 54.9 | 46.4 | 75.7 | 75.2 | 42 | 45.7 | 30.8 | 64.4 | 53 | 43.6 | 36.7 | 31 | viability, T/C [31]: 37.3%; viability, T/C [32]: 30.9%; viability, T/C [33]: 18.1%; viability, T/C [20]: 0.1%; viability, T/C [21]: 0.1%; viability, T/C [22]: 0.08%; viability, T/C [23]: 0.08%; viability, T/C [24]: 0.07%; viability, T/C [34]: 0.16%; viability, T/C [26]: 0.15%; viability, T/C [27]: 0.46%; viability, T/C [28]: 0.12%; viability, T/C [29]: 0.12%; viability, T/C [30]: 0.12%; viability, T/C [35]: 0.2%
4 | Cn1nccc1Nc1nccc(-c2cc3c(s2)C(C)(C)N(CCN2CCOCC2)C3=O)n1 + CNCc1ccccc1-c1csc(C(C)Nc2nc(C)nc3cc(OC)c(OC)cc23)c1 | 323 | 433 | 88.4 | < 31.6 | < 31.6 | 73.6 | 71.3 | 44.5 | 34.1 | 6.18 | 76.4 | 75.4 | 60.6 | 21.4 | 4.19 | 56.5 | 51 | 26.6 | 11.2 | 0.39 | viability, T/C [31]: 2.96%; viability, T/C [32]: 1.79%; viability, T/C [33]: 0.15%; viability, T/C [20]: 0.1%; viability, T/C [21]: 0.09%; viability, T/C [22]: 0.08%; viability, T/C [23]: 0.11%; viability, T/C [24]: 0.04%; viability, T/C [34]: 0.11%; viability, T/C [26]: 0.11%; viability, T/C [27]: 0.13%; viability, T/C [28]: 0.13%; viability, T/C [29]: 0.11%; viability, T/C [30]: 0.11%; viability, T/C [35]: 0.42%
5 | CC(=O)OC12COC1CC(O)C1(C)C(=O)C(O)C3=C(C)C(OC(=O)C(O)C(NC(=O)OC(C)(C)C)c4ccccc4)CC(O)(C(OC(=O)c4ccccc4)C21)C3(C)C (stereo not given) + COc1cc2nc(C)nc(NC(C)c3cc(N)cc(C(F)(F)F)c3)c2cc1OC1CCOC1 | > 3160 | > 3160 | > 3160 | > 3160 | > 3160 | 77.7 | 81.3 | 83.7 | 92.4 | 106 | 76.3 | 92 | 76.7 | 82.6 | 72.1 | 105 | 88.2 | 88 | 96.7 | 56.9 | viability, T/C [1]: 84.9%; viability, T/C [7]: 88%; viability, T/C [13]: 95%; viability, T/C [19]: 90%; viability, T/C [20]: 107%; viability, T/C [21]: 76.5%; viability, T/C [22]: 83.9%; viability, T/C [23]: 83.8%; viability, T/C [24]: 84.9%; viability, T/C [25]: 98%; viability, T/C [26]: 110%; viability, T/C [27]: 96.2%; viability, T/C [28]: 84.3%; viability, T/C [29]: 72.5%; viability, T/C [30]: 92%
